In ChEMBL document CHEMBL4387786, “Mallopenins A-E, Antibacterial Phenolic Derivatives from the Fruits of Mallotus philippensis” (2019):
In brackets after ≈: the same amount, converted by molar mass.

Key:
[1] = tested on: Pseudomonas aeruginosa; assay: Antibacterial activity against Pseudomonas aeruginosa by CLSI guideline based broth microdilution method; format: functional
[2] = tested on: Staphylococcus aureus; assay: Antibacterial activity against Staphylococcus aureus by CLSI guideline based broth microdilution method; format: functional
[3] = tested on: Staphylococcus epidermidis; assay: Antibacterial activity against Staphylococcus epidermidis by CLSI guideline based broth microdilution method; format: functional
[4] = tested on: Escherichia coli; assay: Antibacterial activity against Escherichia coli by CLSI guideline based broth microdilution method; format: functional
[5] = tested on: Shigella flexneri; assay: Antibacterial activity against Shigella flexneri by CLSI guideline based broth microdilution method; format: functional
[6] = tested on: Bacillus cereus; assay: Antibacterial activity against Bacillus cereus by CLSI guideline based broth microdilution method; format: functional
[7] = tested on: Salmonella typhimurium; assay: Antibacterial activity against Salmonella typhimurium by CLSI guideline based broth microdilution method; format: functional, Salmonella enterica subsp. enterica serovar Typhimurium
[8] = tested on: Micrococcus luteus; assay: Antibacterial activity against Micrococcus luteus by CLSI guideline based broth microdilution method; format: functional
[9] = tested on: Streptococcus mutans; assay: Antibacterial activity against Streptococcus mutans by CLSI guideline based broth microdilution method; format: functional

Row | Molecule | MIC [1] [µM] | MIC [2] [µM] | MIC [3] [µM] | MIC [4] [µM] | MIC [5] [µM] | MIC [6] [µM] | MIC ([7]; Salmonella enterica) [µM] | MIC [8] [µM] | MIC [9] [µM] | MIC ([7]; Salmonella enterica subsp. enterica serovar Typhimurium) [µM]
1 | CC1(C)C=Cc2c(O)c3c(c(CC(=O)O)c2O1)O[C@H](c1ccccc1)CC3=O | > 100 | > 100 | > 100 | > 100 | > 100 | > 100 | > 100 | > 100 | > 100 | –
2 | CC(=O)c1c(O)c(C)c(O)c(Cc2c(O)c(CC=C(C)C)c(O)c3c2OC(c2ccccc2)CC3=O)c1O (centres undefined) | > 100 | 61.8 (≈ 32 µg/mL) | > 100 | 30.9 (≈ 16 µg/mL) | > 100 | 30.9 (≈ 16 µg/mL) | > 100 | 30.9 (≈ 16 µg/mL) | 30.9 (≈ 16 µg/mL) | –
3 | COCc1c2c(c(O)c3c1O[C@H](c1ccccc1)CC3=O)C=CC(C)(C)O2 | > 100 | > 100 | > 100 | > 100 | > 100 | > 100 | > 100 | > 100 | > 100 | –
4 | CN[C@H](CC(C)C)C(=O)N[C@H]1C(=O)N[C@@H](CC(N)=O)C(=O)N[C@H]2C(=O)N[C@H]3C(=O)N[C@H](C(=O)N[C@H](C(=O)O)c4cc(O)cc(O)c4-c4cc3ccc4O)[C@H](O)c3ccc(c(Cl)c3)Oc3cc2cc(c3O[C@@H]2O[C@H](CO)[C@@H](O)[C@H](O)[C@H]2O[C@H]2C[C@](C)(N)[C@H](O)[C@H](C)O2)Oc2ccc(cc2Cl)[C@H]1O [VANCOMYCIN] | – | 0.2 (≈ 0.29 µg/mL) | 0.2 (≈ 0.29 µg/mL) | – | – | 0.1 (≈ 0.145 µg/mL) | – | 0.2 (≈ 0.29 µg/mL) | 0.2 (≈ 0.29 µg/mL) | –
5 | GENTAMICIN | 1 | – | – | 0.5 | 1 | – | – | – | – | 1
6 | CC(=O)c1c(O)c(CC=C(C)C)c2c3c1OC1(C)CCC(C3C1)C(C)(C)O2 (racemic) | > 100 | > 100 | > 100 | > 100 | > 100 | > 100 | > 100 | > 100 | > 100 | –
7 | CC(C)=CCC/C(C)=C/Cc1c(O)c2c(c(C(=O)/C=C/c3ccccc3)c1O)OC(C)(C)C=C2 | > 100 | > 100 | > 100 | > 100 | > 100 | > 100 | > 100 | > 100 | > 100 | –
8 | CC(=O)c1c(O)c(C)c(O)c(Cc2c(O)c3c(c(C(=O)/C=C/c4ccccc4)c2O)OC(C)(C)C=C3)c1O [ROTTLERIN] | > 100 | 15.5 (≈ 8.01 µg/mL) | > 100 | 15.5 (≈ 8.01 µg/mL) | > 100 | 15.5 (≈ 8.01 µg/mL) | > 100 | 15.5 (≈ 8.01 µg/mL) | 15.5 (≈ 8.01 µg/mL) | –
9 | CC(=O)c1c(O)c(C)c(O)c(Cc2c3c(c(O)c4c2OC(c2ccc(O)cc2)CC4=O)C=CC(C)(C)O3)c1O (centres undefined) | > 100 | > 100 | > 100 | > 100 | > 100 | 30.1 (≈ 16 µg/mL) | > 100 | > 100 | > 100 | –
10 | CC(=O)c1c(O)c(C)c(O)c(Cc2c(O)c3c(c(C(=O)/C=C/c4ccc(O)cc4)c2O)OC(C)(C)C=C3)c1O | > 100 | 15 (≈ 7.99 µg/mL) | > 100 | 7.5 (≈ 3.99 µg/mL) | > 100 | 3.8 (≈ 2.02 µg/mL) | > 100 | 30.1 (≈ 16 µg/mL) | 3.8 (≈ 2.02 µg/mL) | –
11 | CC(C)=CCc1c(O)c(C(=O)/C=C/c2ccccc2)c2c(c1O)[C@H]1[C@@H]3[C@@H](CC[C@]3(C)O2)C1(C)C | > 100 | > 100 | > 100 | > 100 | > 100 | > 100 | > 100 | > 100 | > 100 | –
12 | CC(=O)c1c(O)c(C)c(O)c(Cc2c3c(c(O)c4c2OC(c2ccccc2)CC4=O)C=CC(C)(C)O3)c1O (centres undefined) | > 100 | > 100 | > 100 | > 100 | > 100 | > 100 | > 100 | > 100 | > 100 | –
